Assay results: ChEMBL document CHEMBL1201862, “PubChem BioAssay data set” (2004)
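How tested: cells in 96-well plates exposed to compound for 48 hours at five concentrations. The concentration for 50% growth inhibition is given as GI50.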 Calls of active or inactive are those of the source. Rule as the data show it: active = GI50 up to about 1.1 µM and inactive = higher.

How the values were obtained:
Experiment in all cases: DTP human tumour cell line panel, 48 h
786-0 = system: 786-0
A498 = system: A498
COLO 205 = system: COLO 205
DU-145 = system: DU-145
HOP-92 = system: HOP-92
IGROV-1 = system: IGROV-1
LOX IMVI = system: LOX IMVI
MCF7 = system: MCF7
MDA-MB-231 = system: MDA-MB-231
MDA-N = system: MDA-N
NCI-H226 = system: NCI-H226
NCI/ADR-RES = system: NCI/ADR-RES
OVCAR-4 = system: OVCAR-4
OVCAR-8 = system: OVCAR-8
PC-3 = system: PC-3
SK-OV-3 = system: SK-OV-3
SR = system: SR
T47D = system: T47D
TK-10 = system: TK-10
UO-31 = system: UO-31

Row | SMILES | GI50 (786-0) | GI50 (A498) | GI50 (COLO 205) | GI50 (DU-145) | GI50 (HOP-92) | GI50 (IGROV-1) | GI50 (LOX IMVI) | GI50 (MCF7) | GI50 (MDA-MB-231) | GI50 (MDA-N) | GI50 (NCI-H226) | GI50 (NCI/ADR-RES) | GI50 (OVCAR-4) | GI50 (OVCAR-8) | GI50 (PC-3) | GI50 (SK-OV-3) | GI50 (SR) | GI50 (T47D) | GI50 (TK-10) | GI50 (UO-31)
1 | CSc1ccc(NC(=O)C2CCCCC2C(=O)O)cc1 (stereo not given) | > 100 µM (inactive) | > 100 µM (inactive) | > 100 µM (inactive) | > 100 µM (inactive) | > 100 µM (inactive) | > 100 µM (inactive) | > 100 µM (inactive) | > 100 µM (inactive) | > 100 µM (inactive) | > 100 µM (inactive) | > 100 µM (inactive) | > 100 µM (inactive) | > 100 µM (inactive) | > 100 µM (inactive) | > 100 µM (inactive) | > 100 µM (inactive) | > 100 µM (inactive) | > 100 µM (inactive) | > 100 µM (inactive) | > 100 µM (inactive)
2 | CC(=O)c1sc2c(c1OC(=O)c1ccccc1)c(=O)n(-c1ccccc1)c(=S)n2-c1ccccc1 | 2.9 µM (inactive) | 2.49 µM (inactive) | 13.6 µM (inactive) | 28.1 µM (inactive) | 1.69 µM (inactive) | 23.3 µM (inactive) | 2.26 µM (inactive) | 35.7 µM (inactive) | 7.93 µM (inactive) | 6.4 µM (inactive) | 2.62 µM (inactive) | 4.65 µM (inactive) | 20.4 µM (inactive) | 4.38 µM (inactive) | 2.9 µM (inactive) | 4.14 µM (inactive) | 3.95 µM (inactive) | 9.23 µM (inactive) | 24 µM (inactive) | 4.09 µM (inactive)
3 | Cc1nc(O)nc(NNCc2ccc(Cl)cc2)c1C(=O)Nc1ccc(Cl)cc1 | > 100 µM (inactive) | > 100 µM (inactive) | > 100 µM (inactive) | 29.4 µM (inactive) | > 100 µM (inactive) | > 100 µM (inactive) | > 100 µM (inactive) | > 100 µM (inactive) | > 100 µM (inactive) | 81.1 µM (inactive) | > 100 µM (inactive) | > 100 µM (inactive) | > 100 µM (inactive) | > 100 µM (inactive) | > 100 µM (inactive) | > 100 µM (inactive) | > 100 µM (inactive) | > 100 µM (inactive) | > 100 µM (inactive) | > 100 µM (inactive)
4 | COC(=O)C1=C(O)C(C(=O)OC)[C@]2(O)[C@H](C(=O)OC)[C@H]1C[C@@H](c1ccc(Cl)cc1)[C@H]2C(=O)OC (stereo not given in full) | 6.41 µM (inactive) | 11.7 µM (inactive) | 10 µM (inactive) | 7.11 µM (inactive) | 19.3 µM (inactive) | 14.5 µM (inactive) | 10.7 µM (inactive) | 4.07 µM (inactive) | 16.5 µM (inactive) | 3.78 µM (inactive) | 8.18 µM (inactive) | 3.29 µM (inactive) | 11.1 µM (inactive) | 5.89 µM (inactive) | 4.65 µM (inactive) | 2.7 µM (inactive) | 4.17 µM (inactive) | 6.58 µM (inactive) | 13 µM (inactive) | 8.97 µM (inactive)
5 | O=c1c2ncn(CCCl)c2n(-c2ccccc2)c(=S)n1-c1ccccc1 | > 100 µM (inactive) | > 100 µM (inactive) | > 100 µM (inactive) | > 100 µM (inactive) | > 100 µM (inactive) | > 100 µM (inactive) | > 100 µM (inactive) | > 100 µM (inactive) | > 100 µM (inactive) | > 100 µM (inactive) | > 100 µM (inactive) | > 100 µM (inactive) | > 100 µM (inactive) | > 100 µM (inactive) | > 100 µM (inactive) | > 100 µM (inactive) | > 100 µM (inactive) | > 100 µM (inactive) | > 100 µM (inactive) | 99.5 µM (inactive)
6 | O=c1[nH]/c(=C/c2ccc(OCc3ccccc3)cn2)c(=O)[nH]/c1=C/c1ccc([N+](=O)[O-])cc1 | > 100 µM (inactive) | 43 µM (inactive) | > 100 µM (inactive) | > 100 µM (inactive) | > 100 µM (inactive) | > 100 µM (inactive) | > 100 µM (inactive) | > 100 µM (inactive) | > 89.3 µM (inactive) | > 100 µM (inactive) | > 100 µM (inactive) | > 100 µM (inactive) | > 100 µM (inactive) | > 100 µM (inactive) | > 100 µM (inactive) | > 73.5 µM (inactive) | > 58.3 µM (inactive) | > 100 µM (inactive) | > 100 µM (inactive) | > 100 µM (inactive)
7 | COc1cc2c(cc1O)[C@@H]1Cc3c(cc(OC)c(OC)c3Oc3cc4c(cc3OC)CCN(C)[C@@H]4Cc3ccc(O)cc3)[C@H](C2)N1C | 36.6 µM (inactive) | 37 µM (inactive) | 19.4 µM (inactive) | > 100 µM (inactive) | 37.9 µM (inactive) | 82.2 µM (inactive) | 18.5 µM (inactive) | 55.5 µM (inactive) | 43.3 µM (inactive) | 19 µM (inactive) | > 100 µM (inactive) | > 100 µM (inactive) | 33 µM (inactive) | 53 µM (inactive) | 36.2 µM (inactive) | > 94 µM (inactive) | 13 µM (inactive) | 36.1 µM (inactive) | > 72.3 µM (inactive) | > 84.9 µM (inactive)
8 | COC(=O)C(Cc1c[nH]c2ccccc12)NP(=O)(O)OCC1OC(n2cc(I)c(=O)[nH]c2=O)CC1O (stereo not given) | > 100 µM (inactive) | > 100 µM (inactive) | > 100 µM (inactive) | > 100 µM (inactive) | > 100 µM (inactive) | > 100 µM (inactive) | > 100 µM (inactive) | > 100 µM (inactive) | > 100 µM (inactive) | > 100 µM (inactive) | > 100 µM (inactive) | > 100 µM (inactive) | > 100 µM (inactive) | > 100 µM (inactive) | > 100 µM (inactive) | > 100 µM (inactive) | > 100 µM (inactive) | > 100 µM (inactive) | > 100 µM (inactive) | > 100 µM (inactive)
9 | CCC(C#N)N(Cc1ccc(CN(C(=O)c2ccccc2)C(C#N)CC)cc1)C(=O)c1ccccc1 (stereo not given) | 19.2 µM (inactive) | 18.8 µM (inactive) | 14.7 µM (inactive) | 28.6 µM (inactive) | 13.2 µM (inactive) | 18.4 µM (inactive) | 15.9 µM (inactive) | 19.2 µM (inactive) | 23.7 µM (inactive) | 32.4 µM (inactive) | 32.5 µM (inactive) | 18.2 µM (inactive) | 17.4 µM (inactive) | 31.6 µM (inactive) | 26 µM (inactive) | 23.9 µM (inactive) | 54.6 µM (inactive) | 9.02 µM (inactive) | 12.9 µM (inactive) | 19.7 µM (inactive)
10 | COC(=O)c1ccccc1C1CN=NC12Cc1cc(C)ccc1C2=O (stereo not given) | > 100 µM (inactive) | > 100 µM (inactive) | > 100 µM (inactive) | > 100 µM (inactive) | 43.2 µM (inactive) | > 100 µM (inactive) | 36.4 µM (inactive) | 3.58 µM (inactive) | 21.5 µM (inactive) | 72.9 µM (inactive) | > 100 µM (inactive) | 49.9 µM (inactive) | > 100 µM (inactive) | > 100 µM (inactive) | 94.4 µM (inactive) | > 100 µM (inactive) | > 100 µM (inactive) | > 100 µM (inactive) | 16.6 µM (inactive) | 52.4 µM (inactive)
11 | COc1ccc(/C=N/c2nc3cc4sc(/N=C/c5ccc(OC)cc5)nc4cc3s2)cc1 | > 76.4 µM (inactive) | > 100 µM (inactive) | 3.66 µM (inactive) | > 23.7 µM (inactive) | > 78.9 µM (inactive) | 57.4 µM (inactive) | 28.3 µM (inactive) | 11.6 µM (inactive) | 98.6 µM (inactive) | 34.2 µM (inactive) | 24.9 µM (inactive) | 23.4 µM (inactive) | 57.4 µM (inactive) | > 60.5 µM (inactive) | > 81.7 µM (inactive) | 49.7 µM (inactive) | 22.9 µM (inactive) | > 40.9 µM (inactive) | 30.9 µM (inactive) | 55.7 µM (inactive)
12 | Cc1cc(OCc2nc(N)nc(N)c2-c2ccc(Cl)c(Cl)c2)ccc1[N+](=O)[O-] | 0.104 µM (active) | 0.103 µM (active) | 0.705 µM (active) | 0.582 µM (active) | 4.92 µM (inactive) | 0.0723 µM (active) | 0.0818 µM (active) | 0.262 µM (active) | 0.384 µM (active) | 0.0776 µM (active) | 8.67 µM (inactive) | 0.404 µM (active) | 2.19 µM (inactive) | 0.556 µM (active) | 0.467 µM (active) | 3.01 µM (inactive) | 0.0237 µM (active) | 2.44 µM (inactive) | 0.401 µM (active) | 0.791 µM (active)
